Data taken from patent US9695155B2, “Herbicidal substituted pyrimidinyloxy benzene compounds” (E. I. DU PONT DE NEMOURS AND COMPANY, priority 2013, dated 2017).

Assays:
velvetleaf = test: Test C preemergence; type: in vivo, Abutilon theophrasti; conditions: Abutilon theophrasti, pre-emergence
How it was run: (§1)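 Rated visually on 0–100 (100 = complete control) after 13–15 days under glass. Treatments went onto freshly seeded loam/sand soil or onto emerged plants at the 1- to 4-leaf stage, using a surfactant-containing solvent formulation.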

barnyardgrass = test: Test C preemergence; type: in vivo, Echinochloa crus-galli; conditions: Echinochloa crus-galli, pre-emergence
How it was run: as §1

blackgrass = test: Test C preemergence; type: in vivo, Alopecurus myosuroides; conditions: Alopecurus myosuroides, pre-emergence
How it was run: as §1

oilseed rape = test: Test C preemergence; type: in vivo, Brassica napus; conditions: Brassica napus, pre-emergence
How it was run: as §1

soybean = test: Test C preemergence; type: in vivo, Glycine max; conditions: Glycine max, pre-emergence
How it was run: as §1

corn = test: Test C preemergence; type: in vivo, Zea mays; conditions: Zea mays, pre-emergence
How it was run: as §1

galium = test: Test C preemergence; type: in vivo, Galium aparine; conditions: Galium, pre-emergence
How it was run: as §1

ragweed [1] = test: Test A postemergence; type: in vivo, Ambrosia elatior; conditions: 0 to 100 scale, 0 no effect, 100 complete control
How it was run: (§2)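 Greenhouse pot test, loam/sand soil. Formulation: non-phytotoxic solvent mix plus surfactant. Pre: directed spray onto soil after sowing. Post: plants at 1–2 leaf, 2–10 cm. Rated visually vs untreated controls at ~10 d, 0 (no effect) to 100 (complete control).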

ragweed [2] = test: Test C preemergence; type: in vivo, Ambrosia elatior; conditions: Ambrosia artemisiifolia, pre-emergence
How it was run: as §1

kochia [3] = test: Test A preemergence; type: in vivo, Kochia scoparia
How it was run: as §2

wheat, winter = test: Test C preemergence; type: in vivo, Triticum aestivum; conditions: Triticum aestivum, pre-emergence
How it was run: as §1

giant foxtail = test: Test C preemergence; type: in vivo, Setaria faberii; conditions: Setaria faberi, pre-emergence
How it was run: as §1

Italian ryegrass = test: Test C preemergence; type: in vivo, Lolium multiflorum; conditions: Lolium multiflorum, pre-emergence
How it was run: as §1

kochia [4] = test: Test A postemergence; type: in vivo, Kochia scoparia; conditions: 0 to 100 scale, 0 no effect, 100 complete control
How it was run: as §2

morningglory = test: Test C preemergence; type: in vivo, Ipomoea coccinea; conditions: Ipomoea, pre-emergence
How it was run: as §1

johnsongrass = test: Test C preemergence; type: in vivo, Sorghum halepense; conditions: Sorghum halepense, pre-emergence
How it was run: as §1

lambsquarters = test: Test C preemergence; type: in vivo, Chenopodium album; conditions: Chenopodium album, pre-emergence
How it was run: as §1

Compound: N#Cc1cccc(Oc2ncc(Cl)cn2)c1-n1cc(C(F)F)cn1 [Compound 253, 3-(5-chloropyrimidin-2-yl)oxy-2-[4-(difluoromethyl)-1H-pyrazol-1-yl]benzonitrile]
- pest or weed control at 16 g/ha (velvetleaf; 16 g ai/ha, preemergence, scale 0 to 100 (0 no effect, 100 complete control), read-out: Velvetleaf plant response rating): 55%
- pest or weed control at 125 g/ha (velvetleaf; 125 g ai/ha, preemergence, scale 0 (no effect) to 100 (complete control), read-out: Velvetleaf plant response rating): 100%
- pest or weed control at 62 g/ha (velvetleaf; Preemergence, 62 g ai/ha, scale 0 to 100, 0 no effect, 100 complete control, read-out: Plant response rating, Velvetleaf): 100%
- pest or weed control at 16 g/ha (barnyardgrass; 16 g ai/ha, preemergence, scale 0 to 100 (0 no effect, 100 complete control), read-out: Barnyardgrass plant response rating): 30%
- pest or weed control at 125 g/ha (barnyardgrass; 125 g ai/ha, preemergence, scale 0 (no effect) to 100 (complete control), read-out: Barnyardgrass plant response rating): 100%
- pest or weed control at 62 g/ha (barnyardgrass; Preemergence, 62 g ai/ha, scale 0 to 100, 0 no effect, 100 complete control, read-out: Plant response rating, Barnyardgrass): 100%
- pest or weed control at 16 g/ha (blackgrass; 16 g ai/ha, preemergence, scale 0 to 100 (0 no effect, 100 complete control), read-out: Blackgrass plant response rating): 0%
- pest or weed control at 125 g/ha (blackgrass; 125 g ai/ha, preemergence, scale 0 (no effect) to 100 (complete control), read-out: Blackgrass plant response rating): 90%
- pest or weed control at 62 g/ha (blackgrass; Preemergence, 62 g ai/ha, scale 0 to 100, 0 no effect, 100 complete control, read-out: Plant response rating, Blackgrass): 90%
- plant injury at 16 g/ha (oilseed rape; 16 g ai/ha, preemergence, scale 0 to 100 (0 no effect, 100 complete control), read-out: Oilseed Rape plant response rating): 75%
- plant injury at 125 g/ha (oilseed rape; 125 g ai/ha, preemergence, scale 0 (no effect) to 100 (complete control), read-out: Oilseed Rape plant response rating): 100%
- plant injury at 62 g/ha (oilseed rape; Preemergence, 62 g ai/ha, scale 0 to 100, 0 no effect, 100 complete control, read-out: Plant response rating, Oilseed Rape): 100%
- plant injury at 16 g/ha (soybean; 16 g ai/ha, preemergence, scale 0 to 100 (0 no effect, 100 complete control), read-out: Soybean plant response rating): 40%
- plant injury at 125 g/ha (soybean; 125 g ai/ha, preemergence, scale 0 (no effect) to 100 (complete control), read-out: Soybean plant response rating): 98%
- plant injury at 62 g/ha (soybean; Preemergence, 62 g ai/ha, scale 0 to 100, 0 no effect, 100 complete control, read-out: Plant response rating, Soybean): 95%
- plant injury at 16 g/ha (corn; 16 g ai/ha, preemergence, scale 0 to 100 (0 no effect, 100 complete control), read-out: Corn plant response rating): 0%
- plant injury at 125 g/ha (corn; 125 g ai/ha, preemergence, scale 0 (no effect) to 100 (complete control), read-out: Corn plant response rating): 90%
- Corn plant response rating (crop injury, 0 = no effect, 100 = complete kill) at 62 g/ha (corn; Preemergence, 62 g ai/ha, scale 0 to 100, 0 no effect, 100 complete control): 35%
- pest or weed control at 16 g/ha (galium; 16 g ai/ha, preemergence, scale 0 to 100 (0 no effect, 100 complete control), read-out: Galium plant response rating): 70%
- pest or weed control at 125 g/ha (galium; 125 g ai/ha, preemergence, scale 0 (no effect) to 100 (complete control), read-out: Galium plant response rating): 95%
- pest or weed control at 62 g/ha (galium; Preemergence, 62 g ai/ha, scale 0 to 100, 0 no effect, 100 complete control, read-out: Plant response rating, Galium): 100%
- Plant response rating, Ragweed (ragweed [1]; 31 g ai/ha): 20
- Plant response rating, Ragweed (ragweed [1]; 125 g ai/ha): 80
- pest or weed control at 16 g/ha (ragweed [2]; 16 g ai/ha, preemergence, scale 0 to 100 (0 no effect, 100 complete control), read-out: Ragweed plant response rating): 35%
- pest or weed control at 125 g/ha (ragweed [2]; 125 g ai/ha, preemergence, scale 0 (no effect) to 100 (complete control), read-out: Ragweed plant response rating): 100%
- pest or weed control at 62 g/ha (ragweed [2]; Preemergence, 62 g ai/ha, scale 0 to 100, 0 no effect, 100 complete control, read-out: Plant response rating, Ragweed): 85%
- Plant response rating, Kochia (kochia [3]; 31 g ai/ha, 0 to 100 scale where 0 is no effect and 100 is complete control, visual, approximately 10 days): 90
- Kochia plant response rating (0 to 100 scale) (kochia [3]; 125 g ai/ha): 100
- plant injury at 16 g/ha (wheat, winter; 16 g ai/ha, preemergence, scale 0 to 100 (0 no effect, 100 complete control), read-out: Wheat plant response rating): 0%
- plant injury at 125 g/ha (wheat, winter; 125 g ai/ha, preemergence, scale 0 (no effect) to 100 (complete control), read-out: Wheat plant response rating): 60%
- plant injury at 62 g/ha (wheat, winter; Preemergence, 62 g ai/ha, scale 0 to 100, 0 no effect, 100 complete control, read-out: Plant response rating, Wheat): 0%
- pest or weed control at 16 g/ha (giant foxtail; 16 g ai/ha, preemergence, scale 0 to 100 (0 no effect, 100 complete control), read-out: Foxtail, Giant plant response rating): 35%
- pest or weed control at 125 g/ha (giant foxtail; 125 g ai/ha, preemergence, scale 0 (no effect) to 100 (complete control), read-out: Foxtail, Giant plant response rating): 100%
- pest or weed control at 62 g/ha (giant foxtail; Preemergence, 62 g ai/ha, scale 0 to 100, 0 no effect, 100 complete control, read-out: Plant response rating, Foxtail, Giant): 98%
- pest or weed control at 16 g/ha (Italian ryegrass; 16 g ai/ha, preemergence, scale 0 to 100 (0 no effect, 100 complete control), read-out: Ryegrass, Italian plant response rating): 0%
- pest or weed control at 125 g/ha (Italian ryegrass; 125 g ai/ha, preemergence, scale 0 (no effect) to 100 (complete control), read-out: Ryegrass, Italian plant response rating): 80%
- pest or weed control at 62 g/ha (Italian ryegrass; Preemergence, 62 g ai/ha, scale 0 to 100, 0 no effect, 100 complete control, read-out: Plant response rating, Ryegrass, Italian): 35%
- Plant response rating, Kochia (kochia [4]; 31 g ai/ha): 100
- Plant response rating, Kochia (kochia [4]; 125 g ai/ha): 100
- pest or weed control at 16 g/ha (morningglory; 16 g ai/ha, preemergence, scale 0 to 100 (0 no effect, 100 complete control), read-out: Morningglory plant response rating): 40%
- pest or weed control at 125 g/ha (morningglory; 125 g ai/ha, preemergence, scale 0 (no effect) to 100 (complete control), read-out: Morningglory plant response rating): 100%
- pest or weed control at 62 g/ha (morningglory; Preemergence, 62 g ai/ha, scale 0 to 100, 0 no effect, 100 complete control, read-out: Plant response rating, Morningglory): 98%
- pest or weed control at 16 g/ha (johnsongrass; 16 g ai/ha, preemergence, scale 0 to 100 (0 no effect, 100 complete control), read-out: Johnsongrass plant response rating): 15%
- pest or weed control at 125 g/ha (johnsongrass; 125 g ai/ha, preemergence, scale 0 (no effect) to 100 (complete control), read-out: Johnsongrass plant response rating): 100%
- pest or weed control at 62 g/ha (johnsongrass; Preemergence, 62 g ai/ha, scale 0 to 100, 0 no effect, 100 complete control, read-out: Plant response rating, Johnsongrass): 60%
- pest or weed control at 16 g/ha (lambsquarters; 16 g ai/ha, preemergence, scale 0 to 100 (0 no effect, 100 complete control), read-out: Lambsquarters plant response rating): 100%
- pest or weed control at 125 g/ha (lambsquarters; 125 g ai/ha, preemergence, scale 0 (no effect) to 100 (complete control), read-out: Lambsquarters plant response rating): 100%
- pest or weed control at 62 g/ha (lambsquarters; Preemergence, 62 g ai/ha, scale 0 to 100, 0 no effect, 100 complete control, read-out: Plant response rating, Lambsquarters): 100%
